Reference: patent US12336554B2, “Cannabinoid acid beverage” (CHEMTOR, LP, priority 2020, dated 2025)

Test: Dissolution of THCA crystalline powder in distilled water at different pH
Format: physicochemical
Method: 50 mgs of high purity (>99% by weight) THCA crystalline powder was added to 250 ml of distilled water at a pH of 6.5.
The distilled water and THCA from Comparative Example 1 was brought to a pH of 9.5 through the addition of a base and warmed to 40° C.

SMILES: CCCCCc1cc2c(c(O)c1C(=O)O)[C@@H]1C=C(C)CC[C@H]1C(C)(C)O2 [THCA, tetrahydrocannabinolic acid]
- Dissolution in distilled water after heating (50 mgs in 250 ml distilled water, pH 6.5, heated to 100° C.): still did not dissolve
- Dissolution in distilled water (50 mgs in 250 ml distilled water, pH 6.5, immediately and after stirring): did not immediately dissolve, not did it dissolve after stirring
- Dissolution in alkaline water (50 mgs in 250 ml water, pH 9.5 by addition of a base, warmed to 40° C.): dissolved into solution and produced a clear aqueous solution
- Solution stability after cooling (pH 9.5 solution cooled to room temperature): the solution remained clear
